The text below walks through data of publication PMC8472562, “Oral Peptide Vaccine against Hookworm Infection: Correlation of Antibody Titers with Protective Efficacy” (Vaccines, 2021).

“Also recorded” adds a separate entry of the source. Bridge positions count the residues as written; N and C are the ends. I, II: the chains in the order shown.

Data set [1] concerns the target T1, bovine trypsin (Bos taurus, UniProt P00760).
T1 construct: purchased Sigma-Aldrich
T1 sequence (P00760 24-246): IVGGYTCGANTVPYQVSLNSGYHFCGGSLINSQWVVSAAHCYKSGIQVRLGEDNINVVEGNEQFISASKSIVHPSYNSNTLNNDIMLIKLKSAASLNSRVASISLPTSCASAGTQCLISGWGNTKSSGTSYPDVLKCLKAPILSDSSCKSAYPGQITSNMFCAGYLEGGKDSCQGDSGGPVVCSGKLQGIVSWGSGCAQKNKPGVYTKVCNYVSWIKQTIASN
Nature of the data set: In vitro stability against proteolysis by bovine trypsin. The conditions noted are these: bovine trypsin in PBS, 37 °C. In kind it is in vitro ADME. How it is done:
(§1) Enzyme 1000 U solution was prepared from bovine trypsin (10,000 U/mg, Sigma-Aldrich, Castle Hill, NSW, Australia) with 1 mM CaCl2 in 1 mL PBS, as reported previously. After preparation, 100 µL of enzyme solution was added to 400 µL of peptide solution (1.25 mg/mL) in PBS and incubated at 37 °C with shaking. To inhibit enzyme activity, 40 µL of TFA and acetonitrile mixture (1:2) was added to 60 µL aliquots of the mixture at each interval. The solution was analyzed by analytical HPLC with a calibration curve employing the compound’s peak at its characteristic retention time to determine intact compound concentration.

Data set [2] deals with mutant APR-1M74. The data set can be described thus: Serum anti-APR-1 IgG ELISA after oral immunization. Conditions: oral gavage 4 × 100 µg, two-week intervals, n = 8/group. In kind it is in vivo, BALB/c mice.
The subject of data set [3] is p3 epitope. It is filed as in vivo, BALB/c mice. The conditions noted are these: oral gavage 4 × 100 µg; ELISA.
Data set [4] has as its system T2, bovine trypsin.
T2 construct: purchased Sigma-Aldrich
The data set can be described thus: In vitro stability against proteolysis by bovine trypsin. It is filed as in vitro ADME. The conditions noted are these: bovine trypsin 1000 U solution, 1 mM CaCl2 in PBS, 37 °C with shaking, analytical HPLC. How it is done:
as §1

Data set [5] in a line: Secondary structure by ATR-FTIR. It is filed as physicochemical. The conditions noted are these: 2 mg/mL in PBS, 25 °C, triplicate spectra, second derivative. How it is done: The compounds’ secondary structures were evaluated according to the methodology of Yang et al.. Solutions of each compound in PBS (2 mg/mL) were prepared and placed on the diamond-attenuated total reflectance accessory of the ATR-FTIR, and absorbance spectra were collected from 500 and 4000 cm^−1, in triplicate, at 25 °C and 4 cm^−1 resolution. The first and second derivative of the absorbance spectra were generated and analyzed using Originpro 2020 software. The second derivative secondary structure component-peak assignment was also detected and quantified using Originpro 2020 software.

In data set [6] the test system is p3 epitope. It is filed as in vivo, BALB/c mice. The conditions noted are these: oral gavage 4 × 100 µg, two-week intervals, n = 8/group; ELISA; compared to PBS group or between groups.
Data set [7] in a line: Particle size distribution by dynamic light scattering and TEM. In kind it is physicochemical. Conditions: 0.2 mg/mL in PBS, 25 °C, angle 173°. How it is done: Particle size distribution was evaluated by preparing a 0.2 mg/mL solution of each pure compound in PBS and measured using dynamic light scattering (DLS; Zetasizer Nano ZP) at 25 °C and an angle of 173°.
Compounds were evaluated by transmission electron microscopy using a JEM-1010 microscope (JEOL LTD, Tokyo, Japan) at 100 kV. The images were analyzed using AnalySIS® software (Megaview III, Munster, Germany).

In data set [8] the test system is Nippostrongylus brasiliensis. It is filed as in vivo, BALB/c mice. The conditions noted are these: oral 4 × 100 µg; 750 L3 larvae s.c.; 7 days post-infection; one-way ANOVA and Mann Whitney U-test against negative control.

Consider “Ac-TSLIAGPKAQVEAIQKYIGAELKKLIPNASLIENCTKAELSKKKK-NH2 [p3-P25]”, for which the “time to almost complete degradation by trypsin” value in data set [1] (analytical HPLC) was “less than 30 min”.
“I: Ac-TSLIAGPKAQVEAIQKYIGAELKKLIPNASLIENCTKAELSKKKK-NH2 / II: Ac-LLLLLLLLLL (amide I:23-II:C) [BL10]”: the “stability against trypsin degradation, comparison in words” value in data set [1] (one-way ANOVA with Tukey's test) is “significantly slower than p3-P25”.
As to “Ac-LLLLLLLLLLTSLIAGPKAQVEAIQKYIGAELKKLIPNASLIENCTKAELSKKKK-NH2 (N-terminus and C-terminus assumed) [LL10]”, in data set [2], the “serum anti-APR-1 IgG titers” value is on record as “highest”. The “mucosal antibody responses (saliva and fecal extracts, IgA and IgG)” value in data set [3] is given as “detectable”. The metabolised at 0.5 h, 1 mg/mL in data set [4] (100 µL enzyme + 400 µL peptide 1.25 mg/mL, 30 min, read-out: degradation after 30 min of incubation with trypsin) was 25%. Also, the remaining at 1 h, 1 mg/mL in data set [4] (peptide 1.25 mg/mL, 60 min, read-out: conjugate remained intact after 60 min) was determined as 15%. This substance displayed a β-sheet contribution in data set [5] of 6%. Also, in data set [6], the “serum p3-IgG titers” value is “highest; also recorded: significantly higher”. In addition, the “polydispersity index (PDI)” value in data set [7] (DLS) stood at 0.36 ± 0.1. The nanoparticle size in data set [7] (self-assembled, electron microscopy and DLS, LCP, BL10, LL10 also formed aggregates) is reported as 22 nm. The “parasite and egg numbers after challenge infection, in words” value in data set [8] is “highest significant reduction in worm burden; also recorded: significantly reduced”.
